Values quoted from earlier work as cited in patent US10863763B2, “Prebiotic compositions and uses thereof” (priority 2013, dated 2020).
Like-named read-outs stand apart in the source and are kept apart here.

What was measured:
[1] = enriched cereal bars, 2 day test period
[2] = meta-analysis, 10 trials, n=489; 95% CI 1.8, 0.4
[3] = in vivo
[4] = tested on: lactobacilli and bifidobacteria in the faeces; details: 4.5 g/d for 21 d; healthy and constipated adults
[5] = not given; remark: listed apart in the source
[6] = tested on: anorexic gut peptides (GLP-1 & PYY); details: after 2 weeks of supplementation, relative to maltodextrin placebo
[7] = not given; remark: listed apart in the source
[8] = 8 g/d for 12 months; adolescents, n=97; placebo 1.2
[9] = 16 g/d × 2 wk v maltodextrin placebo
[10] = 21 g/d, 3 months; BMI >25 kg/m2, n=48; relative to maltodextrin control
[11] = in vivo; remark: listed apart in the source
[12] = not given; remark: listed apart in the source
[13] = not given; remark: listed apart in the source
[14] = heating at high temperatures for 60 min
[15] = 50% of patty fat replaced, v full fat patty
[16] = 4 h 15 min after administration; 58 normal to slightly overweight women
[17] = low pH alone or Maillard reaction conditions
[18] = 11 RCT, overweight and obese adults

Molecule: β-glucan [reference compound]
- energy intake or any of the 6 subjective ratings of hunger between treatments [1]: no difference

Molecule: chromium picolinate
- weighted mean difference in weight in favour of chromium picolinate over placebo [2]: 1.1 kg

Molecule: glucomannan
- safety in toxicological and genotoxicity studies [3]: safe
- weight loss (9 RCT, n=379, trials averaging 5.2 weeks, 95% CI −1.53, −0.05, 1.24 to 15.1 g/d): 0.79 kg
- weight change in the 3 studies supplying glucomannan in biscuits or granola bars (biscuits or granola bars): failed to report any significant weight change
- weight loss in obese subjects (mean) (obese subjects): −1.30 (−1.69, −0.91) kg
- SOFA fatty acid concentrations in the faeces [4]: increased
- proportion of lactobacilli and bifidobacteria in the faeces [4]: increased

Molecule: fructooligosaccharides [FOS]
- detrimental effects on mineral absorption, lipid metabolism or glycaemic control ([5]; in vivo): failed to find evidence
- single dose at which GI adverse effects (bloating, flatulence and diarrhoea) become evident ([5]; in vivo): > 20 g/day
- treatment-related toxicity, genotoxicity or carcinogenicity ([5]; in vivo): no evidence
- release of anorexic gut peptides (GLP-1 & PYY) in response to a test meal [6]: minor transient increases
- prebiotic activity ([7]; heating at low pH): reduced
- prebiotic activity [7, 17]: stable
- increase in BMI over 12 months [8]: 0.7 kg/m2
- fullness at dinner [9]: increased
- prospective food intake at dinner [9]: decreased
- reduction in total energy intake over a 24 hour test period [9]: 5%
- satiety at breakfast and dinner [9]: significantly increased
- weight change [10]: −1.03 (SD 0.43) kg

Molecule: [Cr] [chromium]
- adverse effects reported by other authors [11]: constipation, decreased appetite and urticaria
- mean difference in weight in favour of chromium over placebo ([12]; 11 RCT, n=866, 95% CI −0.96, −0.03, 137 to 1000 μg/d): -0.5 kg
- BMI or waist to hip circumference [12, 18]: no effect
- percentage body fat [12, 18]: modest reduction
- adverse effects in participants ([12]; disappeared on withdrawal, reappeared on reintroduction): watery stools, vertigo, weakness, nausea, vomiting, dizziness and headaches

Molecule: short chain FOS [scFOS]
- measures of satiety at breakfast or lunch and food intake during an ad libitum lunch ([13]; two separate doses of 0, 5 and 8 g): failed to alter
- energy intake over the remainder of the day ([13]; women consuming the 16 g dose): significantly lower

Molecule: inulin
- degradation to di-D-fructose dianhydrides [14]: substantial degradation
- measures of satiety [15]: no effect
- total fat intake and total energy intake on the test day ([15]; 33 males): lower
- treatment-related toxicity, genotoxicity or carcinogenicity ([5]; animal studies and clinical trial reports): no evidence
- detrimental effects on mineral absorption, lipid metabolism or glycaemic control ([5]; in vivo): failed to find evidence
- prebiotic activity ([7]; heating at low pH): reduced
- prebiotic activity [7, 17]: stable
- energy intake or any of the 6 subjective ratings of hunger between treatments [1]: no difference
- decrease in energy intake at an ad libitum lunch [16]: 89.84 kcal
